In one assay the target is T1, human NK1 receptor (Homo sapiens, UniProt P25103).
T1 construct: expressed in transfected cells; membranes
As to the kind of experiment: Receptor binding for human NK1 receptors ([3H]-substance P displacement, CHO cell membranes). The conditions noted are these: human NK1 receptor in CHO membranes, read-out: affinity NK-1 binding pKi (converted). The procedure:
Receptor Binding for Human NK1 Receptors
Affinity of the compounds for human NK1 receptors was assessed using radio-receptor binding assays. Membrane preparations were prepared from Chinese Hamster Ovarium fibroblast (CHO) cells in which the human NK1 receptor was stably expressed. Membranes were incubated with [^3H]-substance P in the absence or the presence of specified concentrations of the compounds, diluted in a suitable buffer in presence of peptidase inhibitor for 10 min at 25° C. Separation of bound radioactivity from free was done by filtration over Whatman GF/B glass fiber filters with two 5 sec washings. Bound radioactivity was counted by liquid scintillation counting using a Betaplate counter. Measured radioactivity was plotted against the concentration of the displacing test compound and displacement curves were calculated by four-parameter logistic regression, resulting in IC50 values, i.e. that concentration of displacing compound by which 50% of the radioligand is displaced. Affinity pKI values were calculated by correcting the IC50 values for radioligand concentration and its affinity for the human NK1 receptor according to the Cheng-Prusoff equation: pKi=−log [IC50/(1+S/Kd)] in which the IC50 is as described above, S is the concentration [^3H]-substance P used in the assay expressed in mol/l, and Kd is the equilibrium dissociation constant of [^3H]-substance P for human NK1 receptors (in mol/l). cAMP Measurements

Assay [1] has as its system NK1 agonist-induced gerbil foot-tapping. Put plainly: NK1 agonist (GR 73632)-induced gerbil foot-tapping. The conditions noted are these: Meriones unguiculatus, po, 60 min before anaesthesia; GR 73632 i.c.v.; male gerbils; read-out: In vivo antagonism Gerbil foot tapping p.o. ED50. The protocol: Concentration-response relationships were constructed by plotting cAMP conversion against compound concentration and IC50 values were calculated by four-parameter logistic regression. Antagonist potencies (pA2) values were calculated using: […] in which the IC50 of the test compound was obtained from concentration-effect relationships, [SP] is the concentration of substance P (in mol/l; typically 10 nM), and the EC50 is the potency of substance P at human cloned NK1 receptors. NK1 Agonist—Induced Gerbil Foot-Tapping
Therefore, we have used this model to assess the in vivo activity of the compounds of the invention.
60 min prior to anaesthesia with N2O (0.8 L/min), halothane (3%) and O2 (0.8 L/min) male gerbils (40-60 g; Charles River) received an injection of vehicle or test compound (p.o.). Upon successful narcosis the anaesthetic was adjusted to N2O (0.6 L/min), halothane (1.5%) and O2 (0.6 L/min) and a midline scalp incision made. GR 73632 was infused into the cerebroventricular space (AP−0.5 mm, L−1.2 mm, and vertical−4.5 mm from bregma). Following recovery from anaesthesia (about 3-4 min) the foot tapping response was recorded for 5 minutes. The predefined criterion for antagonism of this response was defined as inhibition of foot tapping for ≧5 min.

T1 sequence (P25103 whole entry): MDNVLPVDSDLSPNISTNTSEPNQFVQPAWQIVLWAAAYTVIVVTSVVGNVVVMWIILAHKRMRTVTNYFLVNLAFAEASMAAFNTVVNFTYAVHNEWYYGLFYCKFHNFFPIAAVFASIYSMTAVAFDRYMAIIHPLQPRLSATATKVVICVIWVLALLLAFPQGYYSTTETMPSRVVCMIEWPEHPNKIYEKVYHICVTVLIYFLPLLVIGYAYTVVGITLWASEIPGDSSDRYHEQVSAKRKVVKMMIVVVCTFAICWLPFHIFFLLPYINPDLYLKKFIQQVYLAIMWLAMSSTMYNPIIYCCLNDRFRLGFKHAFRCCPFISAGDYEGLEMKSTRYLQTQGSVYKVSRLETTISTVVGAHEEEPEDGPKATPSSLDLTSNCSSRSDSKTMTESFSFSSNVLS

As a reminder, the ED50 is the midpoint of the dose-response relation. As to `O=C(c1cc(C(F)(F)F)cc(C(F)(F)F)c1)N1C[C@H]2CCC(c3ccncc3)=CN2C[C@H]1Cc1c[nH]c2ccccc12` [Compound 1, (3R,9aR)-(3,5-bis(trifluoromethyl)phenyl)-[3-(1H-indol-3-ylmethyl)-7-pyridin-4-yl-1,3,4,8,9,9a-hexahydro-pyrido[1,2-a]pyrazin-2-yl]-methanone], the Ki on human NK1 receptor was 15.8 nM. Further, the ED50 in assay [1] was determined as 1.7 mg/kg.
Regarding `O=C(c1cc(C(F)(F)F)cc(C(F)(F)F)c1)N1C[C@H]2CCC(c3cccnc3)=CN2C[C@H]1Cc1c[nH]c2ccccc12` [Compound 2, (3R,9aR)-(3,5-bis(trifluoromethyl)phenyl)-[3-(1H-indol-3-ylmethyl)-7-pyridin-3-yl-1,3,4,8,9,9a-hexahydro-pyrido[1,2-a]pyrazin-2-yl]-methanone], the Ki on human NK1 receptor is 20 nM.
`O=C(c1cc(C(F)(F)F)cc(C(F)(F)F)c1)N1C[C@H]2CCC(c3ccccn3)=CN2C[C@H]1Cc1c[nH]c2ccccc12` [Compound 3, (3R,9aR)-(3,5-bis(trifluoromethyl)phenyl)-[3-(1H-indol-3-ylmethyl)-7-pyridin-2-yl-1,3,4,8,9,9a-hexahydro-pyrido[1,2-a]pyrazin-2-yl]-methanone]: the Ki at human NK1 receptor was 3.16 nM. In addition, the ED50 in assay [1] is 2.2 mg/kg.
Regarding `O=C(c1cc(C(F)(F)F)cc(C(F)(F)F)c1)N1C[C@H]2CCC(c3cncnc3)=CN2C[C@H]1Cc1c[nH]c2ccccc12` [Compound 4, (3R,9aR)-(3,5-bis(trifluoromethyl)phenyl)-[3-(1H-indol-3-ylmethyl)-7-pyrimidin-5-yl-1,3,4,8,9,9a-hexahydro-pyrido[1,2-a]pyrazin-2-yl]-methanone], the Ki on human NK1 receptor was 7.94 nM.
On the same count and under the same terms, under `O=C(c1cc(C(F)(F)F)cc(C(F)(F)F)c1)N1C[C@H]2CCC(c3cnccn3)=CN2C[C@H]1Cc1c[nH]c2ccccc12` [Compound 5, (3R,9aR)-(3,5-bis(trifluoromethyl)phenyl)-[3-(1H-indol-3-ylmethyl)-7-pyrazin-2-yl-1,3,4,8,9,9a-hexahydro-pyrido[1,2-a]pyrazin-2-yl]-methanone] stands 2.51 nM; under `O=C(c1cc(C(F)(F)F)cc(C(F)(F)F)c1)N1C[C@H]2CCC(c3ncccn3)=CN2C[C@H]1Cc1c[nH]c2ccccc12` [Compound 6, (3R,9aR)-(3,5-bis(trifluoromethyl)phenyl)-[3-(1H-indol-3-ylmethyl)-7-pyrimidin-2-yl-1,3,4,8,9,9a-hexahydro-pyrido[1,2-a]pyrazin-2-yl]-methanone], 1.58 nM.
In the case of `O=C(c1cc(C(F)(F)F)cc(C(F)(F)F)c1)N1C[C@H]2CCC(c3nccs3)=CN2C[C@H]1Cc1c[nH]c2ccccc12` [Compound 7, (3R,9aR)-(3,5-bis(trifluoromethyl)phenyl)-[3-(1H-indol-3-ylmethyl)-7-thiazol-2-yl-1,3,4,8,9,9a-hexahydro-pyrido[1,2-a]pyrazin-2-yl]-methanone], the Ki on human NK1 receptor was 0.631 nM. Also, in assay [1], the ED50 was determined as 3.4 mg/kg.

The values above are taken from patent publication US7244734B2, “Hexa- and octahydro-pyrido[1,2-a]pyrazine derivatives with NK1 antagonistic activity” (Solvay Pharmaceuticals B.V., priority 2003, dated 2007).
